Measurements from article PMC9607599, “Dual Targeting Ligands—Histamine H3 Receptor Ligands with Monoamine Oxidase B Inhibitory Activity—In Vitro and In Vivo Evaluation” (Pharmaceutics, 2022).
Several values for one entry are separate records, joined by “and”; a condition that tells them apart may be missing. Equal entries are not always repeated. Structures can show the parent of a compound that is named as a salt. Where two headings read alike, the source gives them in different places.

Experiments:
[1] = biological target: T1, human histamine H3 receptor (hH3R) (Homo sapiens, UniProt Q9Y5N1); design: expressed in transfected cells; conditions: HEK293 cells; read-out: hH3R Ki [nM] [95%CI]; cited from earlier work
T1 sequence (Q9Y5N1 whole entry): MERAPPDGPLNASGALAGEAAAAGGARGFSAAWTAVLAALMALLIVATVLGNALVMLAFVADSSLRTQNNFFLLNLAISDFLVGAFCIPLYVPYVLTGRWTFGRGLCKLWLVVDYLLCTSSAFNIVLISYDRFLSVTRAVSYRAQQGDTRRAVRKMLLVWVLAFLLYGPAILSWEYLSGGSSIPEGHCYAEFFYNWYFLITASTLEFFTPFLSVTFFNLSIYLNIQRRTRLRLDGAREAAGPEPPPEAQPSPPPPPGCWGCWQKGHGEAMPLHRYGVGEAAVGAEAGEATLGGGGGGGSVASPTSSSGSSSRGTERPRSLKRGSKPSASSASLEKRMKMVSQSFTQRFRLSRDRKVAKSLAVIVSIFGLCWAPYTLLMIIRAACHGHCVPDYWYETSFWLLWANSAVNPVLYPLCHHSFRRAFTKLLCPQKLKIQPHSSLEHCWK

MAO B = biological target: T2, MAO B (Homo sapiens, UniProt P27338); assay: reversibility of MAO B inhibition (reactivation by excess p-tyramine, with/without preincubation); format: biochemical; conditions: inhibitor at IC80; for reversibility of MAO B inhibition: excess p-tyramine 200 µM
T2 sequence (P27338 1-520): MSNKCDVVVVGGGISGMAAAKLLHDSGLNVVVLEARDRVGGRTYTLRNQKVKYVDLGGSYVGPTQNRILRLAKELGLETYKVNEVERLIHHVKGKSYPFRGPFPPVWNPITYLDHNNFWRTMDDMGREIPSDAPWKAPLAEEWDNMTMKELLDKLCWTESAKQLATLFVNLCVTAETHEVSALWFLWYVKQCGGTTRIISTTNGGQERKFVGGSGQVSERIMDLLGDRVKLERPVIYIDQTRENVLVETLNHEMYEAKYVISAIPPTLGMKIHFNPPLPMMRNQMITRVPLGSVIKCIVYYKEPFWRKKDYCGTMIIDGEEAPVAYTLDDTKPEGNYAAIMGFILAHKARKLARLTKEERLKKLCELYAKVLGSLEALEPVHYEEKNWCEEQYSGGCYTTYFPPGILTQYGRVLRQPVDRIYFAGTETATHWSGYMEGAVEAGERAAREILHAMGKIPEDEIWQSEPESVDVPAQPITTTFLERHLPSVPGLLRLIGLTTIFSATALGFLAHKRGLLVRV
Experimental: The reversibility of the MAO inhibition was tested as described in [6, 7]. […] Two variants of experiment were performed. […] After 22 min, the concentration of the substrate was increased to 200 µM and the signal was measured for 5 h.

human MAO B (hMAO B) [2] = biological target: T3, human MAO B (hMAO B) (Homo sapiens, UniProt P27338); assay: modality of hMAO B inhibition (Michaelis-Menten / Lineweaver-Burk); format: biochemical; conditions: for Lines on LB plot: Lineweaver–Burk double-reciprocal plot; for app. KM / app. Vmax / app. Vmax/app. KM: inhibitor at IC20, IC50, IC80, p-tyramine 0.05–2.0 mM
T3 sequence (P27338 1-520): T2 sequence (P27338 1-520)
Experimental: Modality of hMAO B inhibition was evaluated for compounds 9 and 13 and the reference safinamide according to the method described previously. Three concentrations of inhibitors, corresponding to their IC20, IC50 and IC80 values, were used. Each experiment was performed in triplicate. KM and Vmax values were calculated from Michaelis–Menten curves by nonlinear regression from the substrate. Lineweaver–Burk plots were calculated using linear regression in GraphPad Prism 6.07 (GraphPad Software, San Diego, CA, USA).
For testing modality of enzyme inhibition, we used three concentrations of inhibitors that corresponded to their IC20, IC50 and IC80 values. Substrate (p-tyramine) was used at concentrations: 0.05, 0.1, 0.5, 1.0, 1.5 and 2.0 mM.

hH3R = conditions: cited from earlier work
human MAO B (hMAO B) [3] = biological target: T3, human MAO B (hMAO B); assay: fluorometric MAO assay (p-tyramine substrate); format: biochemical; conditions: for IC50: fluorometric MAO assay, mean ± SEM of 2–4 independent experiments; for inhibition at 1 µM: mean of two independent experiments, read-out: hMAO B % of Inh.
Experimental: The precise method was described in [6]. First, compounds 4–32 were screened for hMAO B inhibitory activity at 1 μM concentration by the fluorometric method. Para-tyramine (200 μM) was used as a substrate for the enzyme and safinamide (1 μM) was used as a reference compound. […] Each experiment was performed in duplicate.
All compounds were first screened for hMAO B inhibitory activity at the concentration of 1 μM. […] Based on the results, we selected compounds 9 and 13 for further analysis.

[4] = biological target: T1, human histamine H3 receptor (hH3R); assay: [3H]Nα-methylhistamine radioligand binding assay in HEK293 cells stably expressing hH3R; design: expressed in transfected cells; conditions: mean within 95% CI of three independent experiments
Experimental: (§1) Affinity to hH3R stably expressed in CHO-K1 [6] or HEK293 [11] cells was evaluated in a radioligand binding assay as described previously. Briefly, 10 mM stock solutions of the test compounds in DMSO were prepared. Each compound was tested at eight concentrations ranging from 10^−5 to 10^−12 M (final concentration). All assays were carried out in duplicate. […] The radioactivity was counted in MicroBeta 2 [6] or MicroBeta Trilux counter (PerkinElmer). Data were fitted to a one-site curve-fitting equation with Prism 6 (GraphPad Software, San Diego, CA, USA) and Ki values were calculated from IC50 values (from at least three experiments performed in duplicates) according to the Cheng−Prusoff equation [12].
(§2) Affinity for hH3R was evaluated in a radioligand binding assay using [^3H]N^α-methylhistamine as radioligand in CHO K1 or HEK293 cells stably expressing hH3R as described previously. […] Then, those with at least 50% inhibition for hH3R were selected for further testing (Ki evaluation). […] Compounds were tested in the binding assay in HEK293 cells.

hMAO B = conditions: cited from earlier work
[5] = parallel artificial membrane permeability assay (PAMPA); format: in vitro ADME; conditions: for Pe (×10^−6cm/s) ± SD: PAMPA, triplicate, breakpoint for permeable compounds Pe ≥ 1.5×10^−6 cm/s
[6] = biological target: T1, human histamine H3 receptor (hH3R); assay: [3H]Nα-methylhistamine radioligand binding assay in CHO-K1 cells stably expressing hH3R; design: expressed in transfected cells; host or cells: CHO-K1; conditions: CHO-K1 cells; [3H]Nα-methylhistamine; mean ± SEM of three independent experiments; read-out: hH3R Ki [nM] ± SEM
Experimental: as §1, §2

[7] = test system: astrocyte cell line isolated from human cerebral cortex; assay: MTT cell viability test on human astrocytes; format: cell-based; conditions: Astrocyte, human astrocytes, MTT
Experimental: (§3) The studies were performed on a commercially-available astrocyte cell line isolated from human cerebral cortex (ScienCell Research Laboratories, San Diego, CA, USA; Cat no. 1800). The cells (passage 7–8) were seeded into a 96-well plate at an amount of 10,000 cells/well and kept in accordance with the ScienCell Research Laboratories’ protocol, i.e., in astrocyte medium supplemented with 2% fetal bovine serum, 10% astrocyte growth supplement and 1% penicillin/streptomycin solution, in an atmosphere with 5% CO2 at 37 °C. The cells were allowed to grow for 24 h and then treated with increasing concentrations of test compounds (0.01–0.25 mg/mL) for 24 and 72 h. Astrocytes in the medium on each plate (regardless of the factors tested) were used as a positive control.
(§4) The viability of the astrocyte cell line was determined calorimetrically using 3-(4,5-dimethylthazol-2-yl)-2,5-diphenyltetrazolium bromide (MTT; Sigma-Aldrich Chemical Co. Ltd., Saint Louis, MO, USA) as described earlier. […] After the incubation time (24 or 72 h) with examined drugs, 50 μL MTT solution (1 mg/mL) was added to each well of the plate for another 4 h. The method is based on the reduction of a yellow tetrazolium salt (MTT) into purple formazan crystals by mitochondrial succinate-tetrazolium reductase system which is metabolically active in viable cells. At the end of the experiment, the cells were treated with 100 μL dimethyl sulphoxide, which enabled the release of the reaction product.
(§5) The absorbance was measured at 570 nm using a BioTek EL×800 microplate reader (BioTek, Winooski, Vermont, USA) and results were expressed as a percentage of the absorbance measured in control cells. The obtained values were plotted against different concentrations of each compound to calculate the viability inhibition concentration at 50% (IC50) using GraphPad Prism 6.07 (GraphPad Software, Inc., San Diego, CA, USA). The experiment was repeated in quadruplicate.
(§6) For the cytotoxicity assessment in the MTT assays, each test drug was used at 8 concentrations (range: 0.01–0.25 mg/mL).

[8] = MTT cell viability test on human astrocytes; format: cell-based; conditions: human; 24 h; at 0.15 and 0.25 mg/mL; read-out: decline in cell viability in comparison to the control level
Experimental: as §3, §4, §5, §6

CC1CCCCN1CCCOc1ccc(C(C)(C)C)cc1 (stereo not drawn) [Compound 10, 1-(3-(4-(tert-Butyl)phenoxy)propyl)-2-methylpiperidine hydrogen oxalate]
Ki [1]: < 100 nM

C[C@H](NCc1ccc(OCc2cccc(F)c2)cc1)C(N)=O [Safinamide, reference compound]
effect of 30 min preincubation on inhibition (preincubated vs non-preincubated) (MAO B): did not show differences between the variants | reversibility of MAO B inhibition (MAO B): reversible inhibition | Affinity (free enzyme vs enzyme-substrate complex) (human MAO B (hMAO B) [2]): Free enzyme > enzyme-substrate complex | Mode of inhibition from kinetic values and LB plot (human MAO B (hMAO B) [2]): Mixed mode | Lines on LB plot (human MAO B (hMAO B) [2]): Lines intersect to the left of y-axis and above x-axis | app. KM (human MAO B (hMAO B) [2]): ↑ curvilinearly with ↑ [I] | app. Vmax (human MAO B (hMAO B) [2]): ↓ curvilinearly with ↑ [I] | app. Vmax/app. KM (human MAO B (hMAO B) [2]): ↓ curvilinearly with ↑ [I]

O=C1/C(=C/c2ccc(OCCCN3CCCCC3)cc2)Cc2cc(OCc3ccc(Br)cc3)ccc21 [Compound 1]
Ki (hH3R): 6.5 nM

Cc1ccc(OCCCN2CCCCC2)cc1.O=C(O)C(=O)O [Compound 21, 1-(3-(p-Tolyloxy)propyl)piperidine hydrogen oxalate]
IC50 (human MAO B (hMAO B) [3]): 755 ± 106 nM | Ki [4]: 43 nM | melting point: 160 to 162 °C

O=C(c1ccc(OCCCc2cnc[nH]2)cc1)C1CC1 [ciproxifan]
Ki (hH3R): 46 nM | IC50 (hMAO B): 2000 nM

CCC(C)(C)c1ccc(OCCCN2CCCCC2)cc1 [DL77]
Ki (hH3R): 37 nM | IC50 (hMAO B): 19 nM

CCc1ccc(OCCCN2CCCCC2)cc1.O=C(O)C(=O)O [Compound 20, 1-(3-(4-Ethylphenoxy)propyl)piperidine hydrogen oxalate]
IC50 (human MAO B (hMAO B) [3]): 70 ± 2 nM | Ki [4]: 62 nM and 61 nM | melting point: 144 to 146 °C

CC(=O)c1ccc(OCCCN2CCCCC2)cc1.O=C(O)C(=O)O [Compound 18, 1-(4-(3-(Piperidin-1-yl)propoxy)phenyl)ethan-1-one hydrogen oxalate]
inhibition at 1 µM (human MAO B (hMAO B) [3]): 19% | Ki [4]: 15 nM | melting point: 157 to 159 °C

CCC(C)(C)c1ccc(OCCCN2CCCC2)cc1 [Compound 3]
Ki (hH3R): 63 nM | IC50 (hMAO B): 4.5 nM

Cn1c(=O)c2c(ncn2C)n(C)c1=O [caffeine, reference compound]
Pe (×10^−6cm/s) ± SD [5]: 15.1 ×10^−6cm/s

Clc1ccc(OCCCN2CCCCC2)cc1.O=C(O)C(=O)O [Compound 23, 1-(3-(4-chlorophenoxy)propyl)piperidine hydrogen oxalate]
IC50 (human MAO B (hMAO B) [3]): 1060 ± 37 nM | Ki [4]: > 80 nM and 83 nM | melting point: 158 to 160 °C

CCCN(CCC)CCCOc1ccc(C(C)(C)C)cc1.O=C(O)C(=O)O [Compound 9, 3-(4-(tert-Butyl)phenoxy)-N,N-dipropylpropan-1-amine hydrogen oxalate]
IC50 (human MAO B (hMAO B) [3]): 2 nM | Ki [6]: 323 ± 73 nM | IC50 ([7]; 24 h incubation, read-out: IC50 24 h): 144 µM and 55 µg/mL | IC50 ([7]; 72 h incubation, read-out: IC50 72 h): 123 µM and 47 µg/mL | viability at 24 h [8]: > 95% | effect of 30 min preincubation on inhibition (preincubated vs non-preincubated) (MAO B): did not show differences between the variants | reversibility of MAO B inhibition (MAO B): reversible inhibition | permeability in PAMPA, in words [5]: not able to cross the artificial membrane | Pe (×10^−6cm/s) ± SD [5]: ^---- -- ^c | melting point: 139 to 142 °C | Affinity (free enzyme vs enzyme-substrate complex) (human MAO B (hMAO B) [2]): Free enzyme ≈ enzyme-substrate complex | Mode of inhibition from kinetic values and LB plot (human MAO B (hMAO B) [2]): noncompetitive inhibition | Lines on LB plot (human MAO B (hMAO B) [2]): Lines intersect to the left of y-axis directly on x-axis | app. KM (human MAO B (hMAO B) [2]): No effect ^a | app. Vmax (human MAO B (hMAO B) [2]): ↓ curvilinearly with ↑ [I] | app. Vmax/app. KM (human MAO B (hMAO B) [2]): ↓ curvilinearly with ↑ [I]

Fc1ccc(OCCCN2CCCCC2)cc1.O=C(O)C(=O)O [Compound 22, 1-(3-(4-Fluorophenoxy)propyl)piperidine hydrogen oxalate]
inhibition at 1 µM (human MAO B (hMAO B) [3]): 29% | Ki [4]: > 80 nM and 93 nM | melting point: 132 to 136 °C

CC(C)c1ccc(OCCCN2CCCCC2)cc1.O=C(O)C(=O)O [Compound 19, 1-(3-(4-Isopropylphenoxy)propyl)piperidine hydrogen oxalate]
IC50 (human MAO B (hMAO B) [3]): 21 ± 3 nM | Ki [4]: 52 nM | melting point: 112 to 115 °C
